Values quoted from earlier work as cited in patent US20160347782A1, “4-methylcatechol Derivatives and Uses Thereof” (THANARES GMBH, priority 2011, published 2016).

Key:
[1] = system: normal human epidermal melanocytes
liver cells = liver cells in vitro; in the μmol range

Structure (SMILES)	Growth of normal human epidermal melanocytes [1]	Proliferation of melanoma cells (melanoma cells)	Inhibition of hepatocellular cholesterol synthesis (liver cells)
Cc1ccc(O)c(O)c1 [Example 4-MC, 4-Methylcatechol]	without impairing	inhibits	inhibits
O=c1c(O)c(-c2ccc(O)c(O)c2)oc2cc(O)cc(O)c12 [quercetin]			inhibits
